Earlier results on 1 compound are cited in patent US11648213B2, “Transdermal therapeutic system containing asenapine” (LTS LOHMANN THERAPIE-SYSTEME AG, priority 2018, dated 2023).

Where only a bound is given, the exact number is not on record here.

Data set [1] addresses serotonin 5-HT2A receptors (Homo sapiens, UniProt P28223). The following applies: antagonist.
For data set [2] the following is noted: in vivo.

Chain of serotonin 5-HT2A receptors (P28223 whole entry): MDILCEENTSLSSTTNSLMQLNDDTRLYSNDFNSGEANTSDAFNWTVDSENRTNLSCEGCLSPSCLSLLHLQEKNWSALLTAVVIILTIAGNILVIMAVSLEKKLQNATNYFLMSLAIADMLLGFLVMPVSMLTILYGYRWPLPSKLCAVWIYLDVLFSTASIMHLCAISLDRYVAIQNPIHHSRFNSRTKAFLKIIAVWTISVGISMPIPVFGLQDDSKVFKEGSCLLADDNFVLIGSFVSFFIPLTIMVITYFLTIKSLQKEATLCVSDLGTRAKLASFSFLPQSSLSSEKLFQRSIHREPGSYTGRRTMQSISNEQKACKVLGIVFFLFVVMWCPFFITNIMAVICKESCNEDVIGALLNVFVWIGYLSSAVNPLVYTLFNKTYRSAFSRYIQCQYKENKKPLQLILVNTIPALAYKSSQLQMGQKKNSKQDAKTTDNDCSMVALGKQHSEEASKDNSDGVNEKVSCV

A word on the bioavailability: it is dose-corrected exposure relative to a reference, in per cent. `CN1C[C@H]2c3ccccc3Oc3ccc(Cl)cc3[C@@H]2C1` (relative stereo) [asenapine, (3aRS,12bRS)-rel-5-chloro-2,3,3a,12b-tetrahydro-2-methyl-1H-dibenz[2,3:6,7]oxepino[4,5-c]pyrrole]: the “affinity to serotonin 5-HT2A receptors” value in data set [1] is “high affinity”. Besides, where the note is “following sublingual administration, therapeutic doses”, the terminal disposition half-life was at least 24 h. The bioavailability (if ingested) is under 2%. The “Somnolence and anxiety (very common), share of the patients” value in data set [2] is reported as at least 10%.
